Data from PMC9738179, “New Nucleic Base-Tethered Trithiolato-Bridged Dinuclear Ruthenium(II)-Arene Compounds: Synthesis and Antiparasitic Activity” (Molecules, 2022).
“And” between values parts separate entries of the source, which are not always exact repeats. Equal values may be shown once. “Also recorded” adds a separate entry of the source. Read-outs that look alike come from different tables or passages of the source.

Assays:
[1] = system: T. gondii β-gal tachyzoites; parameters: method as in PMID 32347622, doi:10.3390/inorganics9080059, PMID 34144354; conditions: previously reported, ref [93],[96],[111], cited from earlier work
[2] = system: human foreskin fibroblasts (HFF); conditions: cited from earlier work
[3] = Stability in DMSO-d6 by 1H NMR (5 min vs 100 days); format: physicochemical; conditions: 25 °C, 5 min and 100 days after sample preparation, stored at 0-5 °C in the dark
Method: For the biological activity evaluation, 1 mM stock solutions of all compounds were prepared in dimethylsulfoxide (DMSO).
The conjugates are well soluble in DMSO, solvent used to prepare standard solutions for biological […]
To assess their stability, compounds 4, 24, 28, 33 and 39 were dissolved in DMSO-d6, and two 1H NMR spectra were recorded at 25°C 5 min and at least 100 days after sample preparation (Figures S1 and S2).
Between the two experiments, the samples were stored at 0°C. For all compounds, there are no significant changes between the spectrum recorded after 5 min and the spectrum recorded after at least […]
further biological tests.
Figure S1. […]

[4] = system: T. gondii β-gal tachyzoites; conditions: cited from earlier work
[5] = system: T. gondii β-gal tachyzoites; assay: Primary screening: T. gondii β-gal proliferation in HFF monolayers at 0.1 and 1 µM (CPRG readout); format: cell-based, Toxoplasma gondii; conditions: tachyzoites cultured in HFF, 72 h, relative to DMSO control
Method: (§1) The screening cascade for the compounds was described in former studies. All compounds were prepared as 1 mM stock solutions from powder, in dimethyl sulfoxide (DMSO, Sigma, St. Louis, MO, USA). For in vitro activity and cytotoxicity assays, HFF were seeded at 5 × 10^3/well and allowed to grow to confluence in phenol-red free culture medium at 37 °C and 5% CO2. T. gondii tachyzoites were released from host cells, and HFF monolayers were infected with freshly isolated parasites (1 × 10^3/well), and compounds were added concomitantly with infection.
In the primary screening, HFF monolayers infected with T. gondii β-gal were treated with 0.1 and 1 µM of each compound, or the corresponding concentration of DMSO (0.01 or 0.1%, respectively) as controls and were incubated for 72 h at 37 °C/5% CO2 as previously described.
(§2) To measure the activity of the tested compound on T. gondii β-gal parasites, after a period of 72 h of culture at 37 °C/5% CO2, the culture medium was aspirated, and cells were permeabilized by adding 90 μL PBS (phosphate buffered saline) with 0.05% Triton X-100. Next, 10 μL of 5 mM chlorophenolred-β-D-galactopyranoside (CPRG; Roche Diagnostics, Rotkreuz, Switzerland, substrate for the β-galactosidase) in PBS were added. Release of chlorophenol red was measured at 570 nm using an EnSpire® multimode plate reader (PerkinElmer, Inc., Waltham, MA, USA). A 100% proliferation of T. gondii β-gal was assigned to control parasites treated only with DMSO. For the primary screening at 0.1 and 1 μM, the activity was measured as the release of chlorophenol red over time and was calculated as percentage from the respective DMSO treated control, which represented 100% of T. gondii β-gal growth.

[6] = Cytotoxicity in non-infected HFF by alamarBlue assay; format: cell-based, human; conditions: human, non-infected HFF, 72 h, relative to DMSO control, triplicate
Method: as §1
(§3) Cytotoxicity assays using uninfected confluent HFF host cells were performed by the alamarBlue assay as previously reported. Confluent HFF monolayers in 96 well-plates were exposed to 0.1, 1, and 2.5 μM of each compound. Non-treated HFF as well as DMSO controls (0.01%, 0.1%, and 0.25%) were included. After 72 h of incubation at 37 °C/5% CO2, the medium was removed, and the plates were washed once with PBS. Resazurin suspended in PBS to a final concentration of 0.01 g/L was added to each well (200 μL/well). Fluorescence was measured at excitation wavelength 530 nm and emission wavelength […] using an EnSpire® multimode plate reader (PerkinElmer, Inc, Waltham, MA, USA). The cytotoxicity values were calculated as percentage of the respective DMSO control, which represented 100% of HFF viability.

[7] = system: T. gondii β-gal tachyzoites; assay: Dose-response study (IC50) against T. gondii β-gal tachyzoites; format: cell-based, Toxoplasma gondii; conditions: 8 serial concentrations 0.007-1 µM, 72 h
Method: as §1
For the dose-response study (IC50 values), measurements for T. gondii β-gal were performed. The selected compounds were added concomitantly with infection in 8 serial concentrations 0.007, 0.01, 0.03, 0.06, 0.12, 0.25, 0.5, and 1 μM.
as §2
For the IC50 assays, the activity measured as the release of chlorophenol red over time was proportional to the number of live parasites down to 50 per well as determined in pilot assays. IC50 values were calculated after the logit-log-transformation of relative growth and subsequent regression analysis. All calculations were performed using the corresponding software tool contained in the Excel software package (Microsoft, Redmond, WA, USA).

[8] = system: human foreskin fibroblasts (HFF); assay: Cytotoxicity in non-infected HFF by alamarBlue assay; format: cell-based
Method: as §1, §3

[9] = 0.1 µM, non-infected HFF, previously reported, ref [93],[96],[111]
[10] = 1 µM, non-infected HFF, previously reported, ref [93],[96],[111]
[11] = 0.1 µM, non-infected HFF, 72 h, relative to DMSO control, triplicate
[12] = 1 µM, non-infected HFF, 72 h, relative to DMSO control, triplicate
[13] = 2.5 µM, control 0.25% DMSO = 100%, six replicates

SMILES	Stability in DMSO-d6 (1H NMR spectra) [3]	T. gondii β-gal Growth (%) ([5]; 0.1 µM)	T. gondii β-gal Growth (%) ([5]; 1 µM)	viability at 72 h, 0.1 µM [6] [%]	viability at 72 h, 1 µM [6] [%]	HFF Viability (%) [8, 11] [%]	also measured
CC(C)(C)c1ccc(C[S+]2[Ru-]3[S+](Cc4ccc(C(C)(C)C)cc4)[Ru-]2[S+]3c2ccc(CC(=O)O)cc2)cc1.Cc1ccc(C(C)C)cc1.Cc1ccc(C(C)C)cc1.[Cl-] (stereo not drawn) [Compound 3]	–	–	–	–	–	–	T. gondii β-gal Growth (%) ([1]; 0.1 µM): 114 ± 2%; T. gondii β-gal Growth (%) ([1]; 1 µM): 110 ± 2%; HFF Viability (%) [2, 9]: 91 ± 4%; HFF Viability (%) [2, 10]: 73 ± 1%; HFF viability at 2.5 µM ([2]; 2.5 µM, intermediates previously reported, not in Table 2, ref [93],[111]): did not affect HFF viability
CC(C)(C)c1ccc(C[S+]2[Ru-]3[S+](Cc4ccc(C(C)(C)C)cc4)[Ru-]2[S+]3c2ccccc2CO)cc1.Cc1ccc(C(C)C)cc1.Cc1ccc(C(C)C)cc1.[Cl-] (stereo not drawn) [Compound 4]	very good stability; also recorded: no modifications	–	–	–	–	–	T. gondii β-gal Growth (%) ([1]; 0.1 µM): 2 ± 0%; T. gondii β-gal Growth (%) ([1]; 1 µM): 1 ± 0%; IC50 ([4]; compound reported earlier, ref [96]): 0.038 µM; HFF Viability (%) [2, 9]: 80 ± 1%; HFF Viability (%) [2, 10]: 69 ± 6%; HFF Viability (%) ([2]; 2.5 µM, compound reported earlier, ref [96]): 4%
C#CCNC(=O)Cc1ccc([S+]2[Ru-]3[S+](Cc4ccc(C(C)(C)C)cc4)[Ru-]2[S+]3Cc2ccc(C(C)(C)C)cc2)cc1.Cc1ccc(C(C)C)cc1.Cc1ccc(C(C)C)cc1.[Cl-] (stereo not drawn) [Compound 8]	–	–	–	–	–	–	T. gondii β-gal Growth (%) ([1]; 0.1 µM): 52 ± 13%; T. gondii β-gal Growth (%) ([1]; 1 µM): 3 ± 1%
C#CCn1ccc(=O)[nH]c1=O.C#CCn1ccc(=O)[nH]c1=O [Compound 15]	–	109 ± 5	83 ± 0	107 ± 2	96 ± 2	–	–
C#CCn1cc(C)c(=O)[nH]c1=O.C#CCn1cc(C)c(=O)[nH]c1=O [Compound 16]	–	96 ± 8	95 ± 6	104 ± 2	103 ± 3	–	–
C#CCn1ccc(N)nc1=O.C#CCn1ccc(N)nc1=O [Compound 17]	–	111 ± 5	90 ± 7	96 ± 1	93 ± 1	–	–
C#CCn1cnc2c(N)ncnc21.C#CCn1cnc2c(N)ncnc21 [Compound 18]	–	117 ± 4	91 ± 6	96 ± 2	89 ± 3	–	–
Cc1ccc(C(C)C)cc1.Cc1ccc(C(C)C)cc1.Cc1cn(Cc2cn(-c3ccc([S]4[Ru]5[S](Cc6ccc(C(C)(C)C)cc6)[Ru+]4[S]5Cc4ccc(C(C)(C)C)cc4)cc3)nn2)c(=O)[nH]c1=O.[Cl-] [Compound 24]	very good stability; also recorded: no modifications	56 ± 15	–	–	–	98 ± 10	IC50 [7]: 0.357 µM; HFF Viability (%) [8, 12]: 96 ± 4%; HFF Viability (%) [8, 13]: 85%
[N-]=[N+]=NCc1cc(=O)[nH]c(=O)[nH]1 [Compound 27, 6-(azidomethyl)uracil]	–	101 ± 5	99 ± 11	98 ± 5	102 ± 3	–	–
NC(=O)CCCc1cn(Cc2cc(=O)[nH]c(=O)[nH]2)nn1 [Compound 28]	very good stability; also recorded: no modifications	–	–	–	–	101 ± 1	–
[N-]=[N+]=NCCn1cnc2c(N)ncnc21 [Compound 32]	–	103 ± 8	94 ± 2	104 ± 2	103 ± 3	–	–
CNc1cn(CCn2cnc3c(N)ncnc32)nn1 [Compound 33]	very good stability; also recorded: no modifications	94 ± 11	83 ± 11	–	–	84 ± 6	HFF Viability (%) [8, 12]: 71 ± 3%
CC(C)(C)c1ccc(C[S]2[Ru]3[S](Cc4ccc(C(C)(C)C)cc4)[Ru+]2[S]3c2ccc(-n3cc(-c4ccccc4)nn3)cc2)cc1.Cc1ccc(C(C)C)cc1.Cc1ccc(C(C)C)cc1.[Cl-] [Compound 37]	–	13 ± 1	0 ± 0	–	–	99 ± 1	IC50 [7]: 0.096 µM; HFF Viability (%) [8, 12]: 71 ± 0%; HFF Viability (%) [8, 13]: highly toxic and 17%
CC(C)(C)c1ccc(C[S]2[Ru]3[S](Cc4ccc(C(C)(C)C)cc4)[Ru+]2[S]3c2ccc(-n3cc(CO)nn3)cc2)cc1.Cc1ccc(C(C)C)cc1.Cc1ccc(C(C)C)cc1.[Cl-] [Compound 38]	–	42 ± 2	0 ± 0	–	–	–	IC50 [7]: 0.128 µM; HFF Viability (%) ([8]; 0.1 µM): 104 ± 1%; HFF Viability (%) ([8]; 1 µM): 71 ± 1%; HFF Viability (%) ([8]; 2.5 µM): 59%
CC(C)(C)c1ccc(C[S]2[Ru]3[S](Cc4ccc(C(C)(C)C)cc4)[Ru+]2[S]3c2ccc(-n3cc(-c4ccccn4)nn3)cc2)cc1.Cc1ccc(C(C)C)cc1.Cc1ccc(C(C)C)cc1.[Cl-] [Compound 39]	very good stability; also recorded: no modifications	14 ± 1	0 ± 0	–	–	94 ± 2	IC50 [7]: 0.075 µM; HFF Viability (%) [8, 12]: 90 ± 1%; HFF Viability (%) [8, 13]: highly toxic and 1%
CCc1nc(N)nc(N)c1-c1ccc(Cl)cc1 [Pyrimethamine, reference compound]	–	–	–	–	–	–	IC50 ([4]; reference compound, ref [93]): 0.326 µM; HFF Viability (%) ([2]; 2.5 µM, reference compound, ref [93]): 99%
